Data from patent publication US8278083B2 (priority 2004, dated 2012).
Read-outs that look alike come from different tables or passages of the source.

Legend:
SIV Mne = type: cell-based
HIV-1(MN) = type: cell-based; conditions: INA-treated HIV-1(MN); for Avg. Capsid Protein conc. Day 7 / Avg. Capsid Protein conc. Day 14 / Avg. Capsid Protein conc. Day 21: AA2 clone 1 cells; for Culture Result Neg / Culture Result Pos: of quadruplicate cultures
SIV = type: cell-based; conditions: INA-treated SIV; FIG. 5
HIV [1] = type: cell-based; conditions: cells exposed to INA-treated HIV; FIG. 6
HIV [2] = type: binding; conditions: compared with non-treated virus; p24 ELISA; FIG. 7
tumor cells = type: cell-based
EBOV-GFP = type: cell-based, Zaire Ebola virus
Zaire EBOV = type: cell-based, Zaire Ebola virus
[3] = tested on: influenza virus strain H3N2 (X-31); type: cell-based
neuraminidase = type: biochemical, influenza virus H3N2
influenza virus = type: cell-based
influenza HA = type: cell-based, influenza virus; conditions: pH 5.0
HeLa cell membrane = type: cell-based; conditions: HeLa cells, INA 20 or 100 μM + UV; FIG. 17

[N-]=[N+]=Nc1cccc2c(I)cccc12 [INA, 1,5-iodonaphthyl azide] was tested. Which infectivity blocked (SIV Mne; 200 μM INA, SIV (P-28) and HIV (P-24) expression) did it give?
Its infectivity blocked is 100%.

And the “production of the viral protein p28” value (SIV Mne; 200 μM INA, up to 11 days after INA treatment, FIG. 4)?
Its value is “no detectable production”.

What about the 1/TCID50/ml (SIV Mne; INA-treated SIV Mne, Reed and Muench, day 21) of the same compound?
Its 1/TCID50/ml is 0.

And the “Culture Result Pos” value (SIV Mne; INA-treated SIV, 1/dil 10^1, number of cultures productively infected, day 21)?
Its value is 0.

What about the “Culture Result Neg” value (SIV Mne; INA-treated SIV, 1/dil 10^1, number of cultures uninfected, day 21) of the same compound?
The value was 0.

And the “viral infectivity of SIV” value (SIV Mne; as little as 50 μM INA, FIG. 4)?
The value was “reduced to essentially zero”.

What about the “Avg. Capsid Protein conc. Day 7” value (HIV-1(MN); 1/dil 10^1) of the same compound?
Its value is 9,201 pg/ml.

And the “Avg. Capsid Protein conc. Day 14” value (HIV-1(MN); 1/dil 10^1)?
Its value is 0 pg/mL.

And the “Avg. Capsid Protein conc. Day 21” value (HIV-1(MN); 1/dil 10^1)?
Its value is 0 pg/mL.

What about the “Culture Result Neg” value (HIV-1(MN); 1/dil 10^1, day 21) of the same compound?
Its value is 4.

And the “Culture Result Pos” value (HIV-1(MN); 1/dil 10^1, day 21)?
Its value is 0.

What about the “Avg. Capsid Protein conc. Day 7” value (HIV-1(MN); 1/dil 10^2) of the same compound?
The value was 0 pg/mL.

And the “Avg. Capsid Protein conc. Day 14” value (HIV-1(MN); 1/dil 10^2)?
The value was 0 pg/mL.

What about the “Avg. Capsid Protein conc. Day 21” value (HIV-1(MN); 1/dil 10^2) of the same compound?
The value was 0 pg/mL.

What about the “Culture Result Neg” value (HIV-1(MN); 1/dil 10^2, day 21) of the same compound?
Its value is 4.

And the “Culture Result Pos” value (HIV-1(MN); 1/dil 10^2, day 21)?
Its value is 0.

And the “Avg. Capsid Protein conc. Day 7” value (HIV-1(MN); 1/dil 10^3)?
Its value is 0 pg/mL.

What about the “Avg. Capsid Protein conc. Day 14” value (HIV-1(MN); 1/dil 10^3) of the same compound?
Its value is 0 pg/mL.

What about the “Avg. Capsid Protein conc. Day 21” value (HIV-1(MN); 1/dil 10^3) of the same compound?
The value was 0 pg/mL.

What about the “Culture Result Neg” value (HIV-1(MN); 1/dil 10^3, day 21) of the same compound?
Its value is 4.

And the “Culture Result Pos” value (HIV-1(MN); 1/dil 10^3, day 21)?
Its value is 0.

And the “Avg. Capsid Protein conc. Day 7” value (HIV-1(MN); 1/dil 10^4)?
The value was 0 pg/mL.

And the “Avg. Capsid Protein conc. Day 14” value (HIV-1(MN); 1/dil 10^4)?
The value was 0 pg/mL.

What about the “Avg. Capsid Protein conc. Day 21” value (HIV-1(MN); 1/dil 10^4) of the same compound?
The value was 0 pg/mL.

And the “Culture Result Neg” value (HIV-1(MN); 1/dil 10^4, day 21)?
The value was 4.

And the “Culture Result Pos” value (HIV-1(MN); 1/dil 10^4, day 21)?
Its value is 0.

And the “Avg. Capsid Protein conc. Day 7” value (HIV-1(MN); 1/dil 10^5)?
Its value is 0 pg/mL.

And the “Avg. Capsid Protein conc. Day 14” value (HIV-1(MN); 1/dil 10^5)?
The value was 0 pg/mL.

And the “Avg. Capsid Protein conc. Day 21” value (HIV-1(MN); 1/dil 10^5)?
The value was 0 pg/mL.

What about the “Culture Result Neg” value (HIV-1(MN); 1/dil 10^5, day 21) of the same compound?
Its value is 4.

And the “Culture Result Pos” value (HIV-1(MN); 1/dil 10^5, day 21)?
The value was 0.

What about the “Avg. Capsid Protein conc. Day 7” value (HIV-1(MN); 1/dil 10^6) of the same compound?
Its value is 0 pg/mL.

What about the “Avg. Capsid Protein conc. Day 14” value (HIV-1(MN); 1/dil 10^6) of the same compound?
Its value is 0 pg/mL.

What about the “Avg. Capsid Protein conc. Day 21” value (HIV-1(MN); 1/dil 10^6) of the same compound?
The value was 0 pg/mL.

What about the “Culture Result Neg” value (HIV-1(MN); 1/dil 10^6, day 21) of the same compound?
The value was 4.

And the “Culture Result Pos” value (HIV-1(MN); 1/dil 10^6, day 21)?
Its value is 0.

And the 1/TCID50/ml (HIV-1(MN); Reed and Muench, day 21)?
Its 1/TCID50/ml is 0.

And the “fusion of SIV with the target cell at the plasma membrane level” value (SIV)?
The value was “blocked fusion of SIV with the target cell”.

What about the “luciferase expression in JC53BL cells” value (HIV [1]) of the same compound?
The value was “substantially no luciferase expression is detected”.

What about the “binding of INA-treated HIV to neutralizing antibodies 2G12, B12 and 4E10” value (HIV [2]) of the same compound?
Its value is “interacts substantially the same as the non-treated virus”.

And the “ability of tumor cells to divide and form colonies” value (tumor cells)?
Its value is “blocked their ability to divide and form colonies”.

What about the “concentration sufficient to inactivate EBOV completely” value (EBOV-GFP) of the same compound?
Its value is 100 to 200 µM.

What about the “infectivity of EBOV-GFP” value (EBOV-GFP; 24-96 h) of the same compound?
Its value is “complete loss of infectivity”.

And the “virus growth (genome copies in culture supernatant)” value (Zaire EBOV)?
Its value is “did not show any growth”.

What about the “infectivity of the influenza virus” value [3] of the same compound?
The value was “reduced the infectivity of the influenza virus to zero”.

What about the “catalytic activity of the viral envelope enzyme neuraminidase” value (neuraminidase) of the same compound?
Its value is “not affected”.

What about the “pH dependent mixing of lipids from the viral envelope with lipids of the target cell (R-18 dequenching)” value (influenza virus) of the same compound?
Its value is “not affected”.

And the “redistribution of viral envelope proteins into the cell membrane (125INA incorporation into HA)” value (influenza HA)?
The value was “almost no detectable signal”.

What about the “mobile fraction of the lipid (DiO)” value (HeLa cell membrane) of the same compound?
The value was “not affected”.

And the “protein mobile fraction (CD4-GFP)” value (HeLa cell membrane)?
The value was “reduced to background level”.
